Where “and” joins values, the source holds several entries; their conditions need not be identical. Equal values may be shown once. Values belong to the compound of their own block, whether it stands above or below them.
System: 388556-164-R-J1-PDC complex spheroid viability
Assay: Anticancer human tumor 388556-164-R-J1-PDC patient-derived colon adenocarcinoma cell line growth inhibition [RAS]
Details: for viability, T/C: stronger effect = lower value
From the text: RAS pathway inhibitors in Combinations in Complex Spheroids
A high-throughput screen of multi-cell type tumor spheroids was designed to identify active combinations of RAS pathway inhibitors and targeted small molecules. Complex spheroids include a stromal component modeled by human endothelial cells (HUVEC) and fibroblasts modeled by human mesenchymal stem cells (MSCs). The concentration ranges selected for each drug and investigational agent were based upon clinically achievable concentrations if the clinical Cmax of the agent was known.
Compounds. The drugs and investigational agents: abemaciclib (NSC768073), cobimetinib (NSC768068), divarasib (GDC6063, NSC841802), docetaxel (NSC628503), GDC-1971 (RLY-1971, NSC841576), gemcitabine (NSC613327), inavolisib (NSC800729), ipatasertib (NSC767898), KB-0742 (NSC834161), MRTX-1133 (NSC836407), osimertinib (NSC779217), RMC-4630 (NSC839698), RMC-6236 (NSC851965), RMC-6291 (NSC852671), Ro-3306 (NSC812927), sapanisertib (NSC764658), SN-38 (NSC673596), staurosporine (NSC755774), SY5609 (NSC837396), and tovorafenib (DAY101, NSC766906), were obtained from the National Cancer Institute (NCI) Developmental Therapeutics Program Chemical Repository. The FDA-approved anticancer drug set is available from the NCI Developmental Therapeutics Program. […] The stock solutions were prepared in dimethyl sulfoxide (DMSO, Sigma-Aldrich, St. Louis, MO, cat. D2650) at 800-fold the tested concentration and stored at -70 degrees C prior to their use. All drugs and investigational agents were tested over a range starting from a high concentration at or near the clinical Cmax and decreasing in half-log increments. If the clinical Cmax for an agent had not been determined, the highest concentration tested was 10 microM.
Cell Culture. All cells were maintained in an incubator at 37 degrees C and 5% CO2 with 95% humidity. The PDC lines were cultured according to standard operating procedures established by the NCI PDMR. All PDCs were thawed and cultured in Matrigel-coated flasks prepared with a working solution of 1X Ham's F-12 nutrient mix, without supplementation (Invitrogen, Waltham, MA, cat. 11765054), 100 U/mL penicillin-streptomycin (Invitrogen, cat. 15140122), and 2.5% Matrigel (Corning Inc., Corning, NY, cat. 354248) for the first three passages. The 362531-283-R-J2-PDC and 782815-120-R-J1-PDC lines were cultured in 6C/Colon 1B media, which includes advanced DMEM/F-12 (Thermo Fisher Scientific, cat. 12634028), 10 mM HEPES (Thermo Fisher Scientific, cat. 15630080), 1X GlutaMAX supplement (Thermo Fisher Scientific, cat. 35050061), 0.1 mg/mL primocin (InvivoGen, San Diego, CA, cat. ant-pm-2), 10% defined fetal bovine serum, heat inactivated (HyClone Laboratories Inc., Logan, UT, cat. SH30070.03HI), 50% L-WRN conditioned media (ATCC, cat. CRL-3276), 1.25 mM N-Acetyl-L-cysteine (Sigma-Aldrich, cat. A9165), 10 mM nicotinamide (Sigma-Aldrich, cat. N0636), 1X B-27 supplement (Thermo Fisher Scientific, cat. 17504044), 1X N-2 supplement (Thermo Fisher Scientific, cat. 17502048), 50 ng/mL human EGF (Thermo Fisher Scientific, cat. PHG0311), and 10 microM Y-27632 dihydrochloride (Tocris Bioscience, cat. 1254). The K12877-001-R-J1-PDC line was cultured in 6I media, which includes all 6C/Colon 1B media plus 10 ng/mL human FGF-10 (PeproTech, cat. 100-26), 1 ng/mL human FGF-2 (PeproTech, cat. 100-18B), 1 µM prostaglandin E2 (Tocris Bioscience, cat. 2296), […] hydrocortisone (Sigma-Aldrich, cat. H4001), and […] bovine insulin (Sigma-Aldrich, cat. I6634). The K86415-001-R-J1-PDC line was cultured in 6D media, which includes all 6C/Colon 1B media components minus the L-WRN conditioned media. The 485176-168-R4-J1-PDC was cultured in PANC media, which includes all 6C/Colon 1B media plus 100 ng/mL human FGF-10 (PeproTech, cat. 100-26), 500 nM SB-431542 (Selleckchem, cat. S1067), and 10 nM gastrin (Tocris Bioscience, cat. 3006). […]
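Also: spheroids exposed to compound for 7 days before readout.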
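For viability, T/C in this document: 100% = DMSO vehicle control luminescence.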

IC50 (compound alone, run of 08/20/2024): > 0.3 µM
SMILES: CCn1c(-c2cccnc2C(C)OC)c2c3cc(ccc31)N1CCOC(CC(NC(=O)C(C(C)C)N(C)C(=O)C3(F)CCN(C(=O)C#CC(C)(C)N(C)C)CC3)C(=O)N3CCCC(N3)C(=O)OCC(C)(C)C2)C1 (configuration not stated)
viability, T/C (compound 0.000949 µM): 105% [middle of 6 runs]
viability, T/C (compound 0.003 µM): 107% [middle of 6 runs]
viability, T/C (compound 0.00949 µM): 106% [middle of 6 runs]
viability, T/C (compound 0.03 µM): 102% [middle of 6 runs]
viability, T/C (compound 0.0949 µM): 106% [middle of 6 runs]
viability, T/C (compound 0.3 µM): 100% [middle of 6 runs]

IC50 (curve of compound): 2.97 µM [middle of 4 runs]
SMILES: CCC(CC)c1cc(NC2CCC(N)C2)n2nccc2n1 (configuration not stated)
viability, T/C (compound 0.0316 µM): 100% [middle of 4 runs]
viability, T/C (compound 0.1 µM): 96.7% [middle of 4 runs]
viability, T/C (compound 0.316 µM): 106% (2×) and 109% and 107%
viability, T/C (compound 1 µM): 108% [middle of 4 runs]
viability, T/C (compound 10 µM): 32% [middle of 4 runs]

IC50 (curve of compound): > 10 µM
SMILES: CC(=O)OC12COC1CC(O)C1(C)C(=O)C(O)C3=C(C)C(OC(=O)C(O)C(NC(=O)OC(C)(C)C)c4ccccc4)CC(O)(C(OC(=O)c4ccccc4)C21)C3(C)C (configuration not stated)
viability, T/C (compound 0.0316 µM): 89.3% [middle of 4 runs]
viability, T/C (compound 0.1 µM): 74.3% [middle of 4 runs]
viability, T/C (compound 0.316 µM): 75% [middle of 4 runs]
viability, T/C (compound 1 µM): 78.8% [middle of 4 runs]
viability, T/C (compound 3.16 µM): 78.5% [middle of 4 runs]
viability, T/C (compound 10 µM): 75.2% [middle of 4 runs]

IC50 (curve of first compound, second compound 0.0316 µM): > 10 µM
IC50 (curve of first compound, second compound 0.1 µM): > 10 µM
IC50 (curve of first compound, second compound 0.316 µM): > 10 µM
IC50 (curve of first compound, second compound 1 µM): 9.42 µM
IC50 (curve of first compound, second compound 3.16 µM): 8.92 µM
IC50 (curve of first compound, second compound 10 µM): 5.28 µM
SMILES: CC1(O)CCCC1n1c(=O)c(C(F)F)cc2cnc(NC3CCN(S(C)(=O)=O)CC3)nc21 (configuration not stated) + C#Cc1c(F)ccc2cc(O)cc(-c3ncc4c(N5CC6CCC(C5)N6)nc(OCC56CCCN5CC(F)C6)nc4c3F)c12
viability, T/C (second compound 0.0316 µM, first compound 0.0316 µM): 99.9%
viability, T/C (second compound 0.0316 µM, first compound 0.1 µM): 101%
viability, T/C (second compound 0.0316 µM, first compound 0.316 µM): 97.3%
viability, T/C (second compound 0.0316 µM, first compound 1 µM): 108%
viability, T/C (second compound 0.0316 µM, first compound 3.16 µM): 111%
viability, T/C (second compound 0.0316 µM, first compound 10 µM): 76.7%
viability, T/C (second compound 0.1 µM, first compound 0.0316 µM): 108%
viability, T/C (second compound 0.1 µM, first compound 0.1 µM): 103%
viability, T/C (second compound 0.1 µM, first compound 0.316 µM): 99.4%
viability, T/C (second compound 0.1 µM, first compound 1 µM): 97.3%
viability, T/C (second compound 0.1 µM, first compound 3.16 µM): 104%
viability, T/C (second compound 0.1 µM, first compound 10 µM): 77.2%
viability, T/C (second compound 0.316 µM, first compound 0.0316 µM): 98.5%
viability, T/C (second compound 0.316 µM, first compound 0.1 µM): 108%
viability, T/C (second compound 0.316 µM, first compound 0.316 µM): 89.4%
viability, T/C (second compound 0.316 µM, first compound 1 µM): 107%
viability, T/C (second compound 0.316 µM, first compound 3.16 µM): 112%
viability, T/C (second compound 0.316 µM, first compound 10 µM): 62.4%
viability, T/C (second compound 1 µM, first compound 0.0316 µM): 92.5%
viability, T/C (second compound 1 µM, first compound 0.1 µM): 99.1%
viability, T/C (second compound 1 µM, first compound 0.316 µM): 77.4%
viability, T/C (second compound 1 µM, first compound 1 µM): 94.8%
viability, T/C (second compound 1 µM, first compound 3.16 µM): 97.4%
viability, T/C (second compound 1 µM, first compound 10 µM): 47.6%
viability, T/C (second compound 3.16 µM, first compound 0.0316 µM): 86.2%
viability, T/C (second compound 3.16 µM, first compound 0.1 µM): 78.6%
viability, T/C (second compound 3.16 µM, first compound 0.316 µM): 78.9%
viability, T/C (second compound 3.16 µM, first compound 1 µM): 82.1%
viability, T/C (second compound 3.16 µM, first compound 3.16 µM): 87.9%
viability, T/C (second compound 3.16 µM, first compound 10 µM): 46.6%
viability, T/C (second compound 10 µM, first compound 0.0316 µM): 69.8%
viability, T/C (second compound 10 µM, first compound 0.1 µM): 72.6%
viability, T/C (second compound 10 µM, first compound 0.316 µM): 74.8%
viability, T/C (second compound 10 µM, first compound 1 µM): 76.2%
viability, T/C (second compound 10 µM, first compound 3.16 µM): 56.3%
viability, T/C (second compound 10 µM, first compound 10 µM): 42.1%
